The structures appear in SMILES notation. Where two headings read alike, the source gives them in different places.

Experiment [1] relates to ileal fluid dependent organism (IFDO).
The target of a further experiment is BSA protein (Bos taurus, UniProt P02769).
For a further experiment, the target named is prion protein (PRP^SC) (Homo sapiens, UniProt P04156).

Chain of BSA protein (P02769 25-607 limits assumed): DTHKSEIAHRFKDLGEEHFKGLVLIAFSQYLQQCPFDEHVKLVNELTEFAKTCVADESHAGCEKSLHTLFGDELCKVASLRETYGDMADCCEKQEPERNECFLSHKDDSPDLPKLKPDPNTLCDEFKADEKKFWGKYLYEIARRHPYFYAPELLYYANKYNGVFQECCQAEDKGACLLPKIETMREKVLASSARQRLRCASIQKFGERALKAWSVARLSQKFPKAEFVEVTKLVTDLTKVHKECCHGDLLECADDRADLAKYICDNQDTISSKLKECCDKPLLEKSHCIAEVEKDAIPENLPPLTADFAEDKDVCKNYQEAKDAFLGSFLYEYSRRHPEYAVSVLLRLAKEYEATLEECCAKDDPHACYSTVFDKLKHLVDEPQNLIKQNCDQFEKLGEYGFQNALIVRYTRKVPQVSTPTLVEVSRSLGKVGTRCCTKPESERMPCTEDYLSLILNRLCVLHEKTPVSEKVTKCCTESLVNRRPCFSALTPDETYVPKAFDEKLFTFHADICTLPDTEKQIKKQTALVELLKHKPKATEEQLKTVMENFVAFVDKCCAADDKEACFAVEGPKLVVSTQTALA

Turning to `OO` [Vapor Hydrogen Peroxide, hydrogen peroxide], the “log reduction in IFDO” value (in the experiment with IFDO organisms; in experiment [1]) was “six” in each case. Also, the “number of colonies developed from IFDO remaining on the vacuum treated samples” value in the experiment with IFDO organisms was “less than 1 log”. In addition, the “number of colonies developed on the vacuum treated samples” value in experiment [1] is “less than 1 log”. Also, in experiment [1] (FIG. 9, atmospheric 1.5 mg/l 30° C. or 3 mg/l 40° C., 15 minutes), the “deactivating the prion model (IFDO): vacuum pulses versus atmospheric conditions” value was “more effective”. Besides, the “breakdown of protein (gel electrophoresis)” value on BSA protein is recorded as “effectively destroys proteins”. The “PRP^SC Detected” value is “No” at prion protein (PRP^SC) (25° C., 1.7 mg/L, 3 hours exposure, atmospheric pressure); “No” on prion protein (PRP^SC) (30° C., 2.2 mg/L, vacuum conditions, six pulses of vapor); “No” on prion protein (PRP^SC) (50° C., 7.0 mg/L, vacuum conditions, three pulses of vapor). The “destruction of the harmful form of the prion protein” value at prion protein (PRP^SC) (summary of Table 7, no precleaning step) is given as “effective at destruction of the harmful form of the prion protein”.

Values taken from patent publication US20030086820A1 (priority 2001, published 2003).
